This is an account of results in paper PMC5126668 (PeerJ, 2016).

The data set has as its target T1, CYP2C9 (Homo sapiens, UniProt P11712).
T1 construct: tissue iPhase Pharmaceutical Services (Beijing, China) Lot # 7MMC011; host or cells: pooled human liver microsomes
Put plainly: Inhibition of CYP activities by GA in HLMs (tolbutamide). In kind it is biochemical. On the procedure: The samples containing HLMs were prepared in an ice bath, and three replicates of each dose were tested.
The reaction system consisted of 0.5 g/L HLMs, 1 mM NADPH, 25 µM phenacetin (CYP1A2 substrate), 25 µM tolbutamide (CYP2C9 substrate), 25 µM mephenytoin (CYP2C19 substrate), 10 µM dextromethorphan (CYP2D6 substrate) and 10 µM midazolam (CYP3A4 substrate). After incubation at 37 °C for 30 min, 200 µL of methanol containing 100 µg/L propranolol hydrochloride was added to terminate the reaction. The samples were then treated, and the corresponding substrate metabolites of CYP isoforms were detected according to a previously described method ([Shen et al., 2013]).

Molecules are shown by their SMILES.

T1 sequence (P11712 whole entry): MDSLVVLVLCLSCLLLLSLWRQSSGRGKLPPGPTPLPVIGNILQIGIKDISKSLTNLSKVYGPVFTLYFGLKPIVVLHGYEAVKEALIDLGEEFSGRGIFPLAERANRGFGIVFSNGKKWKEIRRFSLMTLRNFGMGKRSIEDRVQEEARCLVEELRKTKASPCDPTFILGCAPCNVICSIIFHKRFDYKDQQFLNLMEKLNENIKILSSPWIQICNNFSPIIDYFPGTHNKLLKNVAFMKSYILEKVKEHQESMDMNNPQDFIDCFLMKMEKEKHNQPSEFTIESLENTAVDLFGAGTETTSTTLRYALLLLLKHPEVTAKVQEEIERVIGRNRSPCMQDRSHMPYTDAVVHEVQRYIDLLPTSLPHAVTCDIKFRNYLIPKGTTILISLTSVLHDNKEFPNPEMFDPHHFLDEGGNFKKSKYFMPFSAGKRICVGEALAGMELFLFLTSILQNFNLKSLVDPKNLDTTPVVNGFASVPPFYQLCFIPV

As for `CC1(C)[C@@H](O)CC[C@]2(C)[C@H]3C(=O)C=C4[C@@H]5C[C@@](C)(C(=O)O)CC[C@]5(C)CC[C@@]4(C)[C@]3(C)CC[C@@H]12` [GA, Glycyrrhetinic acid], the 50% inhibitory concentration (IC50) (commonly the concentration that gives 50% inhibition) (HLMs, 30 min pre-incubation with NADPH, tolbutamide 25 µM) was determined as 26.5 ± 3.08 µM. The activity at 30 min, 0.1 µM (human, human liver microsomes, probe tolbutamide 25 µM, CYP2C9-30min, GA 0.1000, vs control, read-out: Relative activity (%)) is 114%. In addition, for the setting “human, human liver microsomes, probe tolbutamide 25 µM, CYP2C9-30min, GA 1.0000, vs control, read-out: Relative activity (%)”, the activity at 30 min, 1 µM is 81%. Further, the activity at 30 min, 6.25 µM (human, human liver microsomes, probe tolbutamide 25 µM, CYP2C9-30min, GA 6.2500, vs control, read-out: Relative activity (%)) was determined as 76.2%. Further, the activity at 30 min, 31.25 µM (human, human liver microsomes, probe tolbutamide 25 µM, CYP2C9-30min, GA 31.2500, vs control, read-out: Relative activity (%)) is 56.1%. The activity at 30 min, 100 µM (human, human liver microsomes, probe tolbutamide 25 µM, CYP2C9-30min, GA 100.0000, vs control, read-out: Relative activity (%)) was found to be 48.9%. Besides, the activity at 30 min, 156.25 µM (human, human liver microsomes, probe tolbutamide 25 µM, CYP2C9-30min, GA 156.2500, vs control, read-out: Relative activity (%)) came to 46.2%. Besides, the activity at 30 min, 312.5 µM (human, human liver microsomes, probe tolbutamide 25 µM, CYP2C9-30min, GA 312.5000, vs control, read-out: Relative activity (%)) was 18.1%. Moreover, the activity at 30 min, […] (human, human liver microsomes, probe tolbutamide 25 µM, read-out: Relative activity (%)) amounted to 35.9%. Also, the activity at 30 min, 1000 µM (human, human liver microsomes, probe tolbutamide (25 µM), CYP2C9-30min, GA 1000.0000, vs control, read-out: Relative activity (%)) worked out at 14.9%.
